In the assay the target is T1, human granzyme B (Homo sapiens, UniProt P10144).
T1 construct: from tissue; host or cells: human lymphocytes
Description: Competitive binding assay of human granzyme B with Compound ^18F-21-Al radioligand. As to conditions: competition with 20 nM Compound ^18F-21-Al, human lymphocyte GZB, 37° C., 90 minutes. How it is done:
Purpose: To perform competitive binding assays with human granzyme B using Compound ^18F-21-Al to determine IC50 values of potential granzyme B ligands
Initial Plate Preparation (including total binding and non-specific binding): • 1. 78 μL of reaction buffer, as described above, is added to each well in a 96 well plate • 2. For wells used to examine total binding (defined as the binding of the radioligand in the absence of competitors), 2 μL of DMSO is added to give 1% final DMSO concentration for all wells • 3. For wells used to examine non-specific binding (defined as the binding of the radioligand in the presence of 10 μM 21), 2 μL of 1 mM Compound 21 is added to give a final concentration of 10 μM
• 1. Granzyme B (GZB, human lymphocyte) is diluted to 0.5 μg/mL using reaction buffer as described above • 2. 100 μL of 0.5 μg/mL diluted human GzB is added to each well, giving 50 ng per well and a final concentration of 0.25 μg/mL
• 1. DMSO or water is added to the respective compound vial to make 1 mM compound stock solution • 2. 1 mM compound stock solution is serially diluted by ½ log (3.16 fold) by adding 18.5 μL of compound stock to 40 μL of DMSO, mixing by pipetting up and down, and transferring 18.5 μL of the mixture to 40 μL of DMSO. This process is repeated to create 10 dilution points for test compounds. • 3. For wells used to examine ligand binding competition, 2 μL of each dilution is dispensed into the 96 well plates prepared as described above, giving a further dilution of 1/100.
• 1. 200 nM of Compound ^18F-21-Al (10× radioligand stock) is prepared in reaction buffer, aiming for approximately 2 million CPM per 20 μL of solution (input). • 2. 20 μL of radioligand stock is dispensed into each well to give a final concentration per well of 20 nM.
• 1. All 96 wells should have a final volume of 200 μL, and the assay plates are incubated at 37° C. for 90 minutes. • 2. All samples from the assay plates are transferred to MultiScreenHTS FB plates that have been presoaked in PBS buffer, pH 7.4, and filtered using a vacuum manifold. An additional 150 μL of PBS buffer is added to each well in the assay plates and combined to ensure transfer of any remaining samples • 3. MultiScreenHTS FB plates are washed 3× with 150 μL of PBS buffer. • 4. All filters are separated and transferred to individual tubes using Multiscreen punch tips and the Millipore multiple punch apparatus • 5. The sample set is analyzed using the Wizard 2480 automatic gamma-counter [Perkin Elmer] through a [^18F]-specific profile. Values are reported as decay-corrected counts per minute (CPM). • 6. Resulting CPM values are normalized and converted to % inhibition by the following equation:
[formula] • *the total bound fraction is typically less than 10% of the added radioligand under such assay conditions. • Resulting % inhibition values were plotted using the software GraphPad Prism 8.4.3 using the One site—Fit log IC50 equation to determine the IC50 value for each ligand.
[formula] • Y=% Inhibition • X=Log concentration of the cold competing ligand (M) • A=minimum Y (0%) • B=maximum Y (100%) • Log IC50=Log concentration of cold competing ligand (M) at half-way between minimum and maximum Y

Numbered stars: 1 amine (or outer) side, 2 acyl side, 3 side chain; on linkers, the order of the positions; unused ones are H or OH. Square brackets hold non-standard residues; d marks the D form. Peptide text beside a SMILES is read from it. * marks the point of attachment. X2 = O=C1CN2CCN(CCN(CC3CCN(CC(=O)*)CC3)CC2)CC(=O)[O][Al]([F])[O]1; NOTA(AlF) = O=C1CN2CCN(CCN(CC(=O)*)CC2)CC(=O)[O][Al]([F])[O]1; Haic = O=C1[C@@H](N[*:1])CCc2cccc3c2N1[C@H](C(=O)[*:2])C3; NH(5-HO-2-oxo-oxolan-4-yl) = O=C1CC(N*)C(O)O1; X1 = O=C(CN1CCN([*:1])CC1)[*:2]

T1 sequence (P10144 21-247): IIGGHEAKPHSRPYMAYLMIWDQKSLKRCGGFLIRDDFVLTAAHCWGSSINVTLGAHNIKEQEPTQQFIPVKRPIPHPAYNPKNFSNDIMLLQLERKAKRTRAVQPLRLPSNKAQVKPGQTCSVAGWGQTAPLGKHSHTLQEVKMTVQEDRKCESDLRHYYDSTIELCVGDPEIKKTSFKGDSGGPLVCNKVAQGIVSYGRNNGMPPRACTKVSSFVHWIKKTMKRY

For the compound `CC[C@H](C)[C@H](NC(=O)CCNC(=O)CCNC(=O)[C@@H](CCC(=O)O)NC(=O)CN1CCC(CN2CCN3CCN(CC2)CC(=O)[O][Al]([F])[O]C(=O)C3)CC1)C(=O)N[C@H]1CCc2cccc3c2N(C1=O)[C@H](C(=O)NC1CC(=O)OC1O)C3` (stereo partly drawn) [Compound 1-Al, 2,2′-(7-((1-((4R,15S,16S)-4-(2-carboxyethyl)-15-(((3S,6S)-6-((2-hydroxy-5-oxotetrahydrofuran-3-yl)carbamoyl)-4-oxo-1,2,3,4,6,7-hexahydroazepino[3,2,1-hi]indol-3-yl)carbamoyl)-16-methyl-2,5,9,13-tetraoxo-3,6,10,14-tetraazaoctadecyl)piperidin-4-yl)methyl)-1,4,7-triazonane-1,4-diyl)diacetic acid, aluminum fluoride complex (1:1)], the IC50 came to 5.7 nM. As to `CC[C@H](C)[C@H](NC(=O)CNC(=O)CNC(=O)[C@H](CCC(=O)O)NC(=O)CN1CCC(CN2CCN3CCN(CC2)CC(=O)[O][Al]([F])[O]C(=O)C3)CC1)C(=O)N[C@H]1CCc2cccc3c2N(C1=O)[C@H](C(=O)NC1CC(=O)OC1O)C3` (stereo partly drawn) [Compound 2-Al, 2,2′-(7-((1-((4S,13S,14S)-4-(2-carboxyethyl)-13-(((3S,6S)-6-((2-hydroxy-5-oxotetrahydrofuran-3-yl)carbamoyl)-4-oxo-1,2,3,4,6,7-hexahydroazepino[3,2,1-hi]indol-3-yl)carbamoyl)-14-methyl-2,5,8,11-tetraoxo-3,6,9,12-tetraazahexadecyl)piperidin-4-yl)methyl)-1,4,7-triazonane-1,4-diyl)diacetic acid aluminum fluoride complex (1:1)] (X2-EGGI[Haic]-{NH(5-HO-2-oxo-oxolan-4-yl)}), the IC50 was 7.5 nM. As to `CC[C@H](C)[C@H](NC(=O)CCNC(=O)CN(CC(=O)O)C(=O)CCNC(=O)CN1CCC(CN2CCN3CCN(CC2)CC(=O)[O][Al]([F])[O]C(=O)C3)CC1)C(=O)N[C@H]1CCc2cccc3c2N(C1=O)[C@H](C(=O)NC1CC(=O)OC1O)C3` (stereo partly drawn) [Compound 3-Al, 2,2′-(7-((1-((15S,16S)-7-(carboxymethyl)-15-(((3S,6S)-6-((2-hydroxy-5-oxotetrahydrofuran-3-yl)carbamoyl)-4-oxo-1,2,3,4,6,7-hexahydroazepino[3,2,1-hi]indol-3-yl)carbamoyl)-16-methyl-2,6,9,13-tetraoxo-3,7,10,14-tetraazaoctadecyl)piperidin-4-yl)methyl)-1,4,7-triazonane-1,4-diyl)diacetic acid, aluminum fluoride complex (1:1)], the IC50 was determined as 4.7 nM. Regarding `CC[C@H](C)[C@H](NC(=O)COCCNC(=O)[C@@H](CCC(=O)O)NC(=O)[C@@H](CCC(=O)O)NC(=O)CN1CCC(CN2CCN3CCN(CC2)CC(=O)[O][Al]([F])[O]C(=O)C3)CC1)C(=O)N[C@H]1CCc2cccc3c2N(C1=O)[C@H](C(=O)NC1CC(=O)OC1O)C3` (stereo partly drawn) [Compound 4-Al, 2,2′-(7-((1-((4R,7R,16S,17S)-4,7-bis(2-carboxyethyl)-16-(((3S,6S)-6-((2-hydroxy-5-oxotetrahydrofuran-3-yl)carbamoyl)-4-oxo-1,2,3,4,6,7-hexahydroazepino[3,2,1-hi]indol-3-yl)carbamoyl)-17-methyl-2,5,8,14-tetraoxo-12-oxa-3,6,9,15-tetraazanonadecyl)piperidin-4-yl)methyl)-1,4,7-triazonane-1,4-diyl)diacetic acid, aluminum fluoride complex (1:1)], the IC50 was 2.8 nM.

In the case of `CC[C@H](C)[C@H](NC(=O)CCNC(=O)CCNC(=O)CN(CC(=O)O)C(=O)CN1CCC(CN2CCN3CCN(CC2)CC(=O)[O][Al]([F])[O]C(=O)C3)CC1)C(=O)N[C@H]1CCc2cccc3c2N(C1=O)[C@H](C(=O)NC1CC(=O)OC1O)C3` (stereo partly drawn) [Compound 5-Al, 2,2′-(7-((1-((15S,16S)-3-(carboxymethyl)-15-(((3S,6S)-6-((2-hydroxy-5-oxotetrahydrofuran-3-yl)carbamoyl)-4-oxo-1,2,3,4,6,7-hexahydroazepino[3,2,1-hi]indol-3-yl)carbamoyl)-16-methyl-2,5,9,13-tetraoxo-3,6,10,14-tetraazaoctadecyl)piperidin-4-yl)methyl)-1,4,7-triazonane-1,4-diyl)diacetic acid, aluminum fluoride complex (1:1)], the IC50 was found to be 5.7 nM. With `CC[C@H](C)[C@H](NC(=O)CCNC(=O)CC[C@H](NC(=O)CN1CCC(CN2CCN3CCN(CC2)CC(=O)[O][Al]([F])[O]C(=O)C3)CC1)C(=O)O)C(=O)N[C@H]1CCc2cccc3c2N(C1=O)[C@H](C(=O)NC1CC(=O)OC1O)C3` (stereo partly drawn) [Compound 6-Al, 2,2′-(7-((1-(2-(((1S)-1-carboxy-4-((3-(((2S,3S)-1-(((3S,6S)-6-((2-hydroxy-5-oxotetrahydrofuran-3-yl)carbamoyl)-4-oxo-1,2,3,4,6,7-hexahydroazepino[3,2,1-hi]indol-3-yl)amino)-3-methyl-1-oxopentan-2-yl)amino)-3-oxopropyl)amino)-4-oxobutyl)amino)-2-oxoethyl)piperidin-4-yl)methyl)-1,4,7-triazonane-1,4-diyl)diacetic acid, aluminum fluoride complex (1:1)], the IC50 is 4.5 nM. Next, `CC[C@H](C)[C@H](NC(=O)CCNC(=O)[C@@H](CCC(=O)O)NC(=O)CCNC(=O)CN1CCC(CN2CCN3CCN(CC2)CC(=O)[O][Al]([F])[O]C(=O)C3)CC1)C(=O)N[C@H]1CCc2cccc3c2N(C1=O)[C@H](C(=O)NC1CC(=O)OC1O)C3` (stereo partly drawn) [Compound 7-Al, 2,2′-(7-((1-((8R,15S,16S)-8-(2-carboxyethyl)-15-(((3S,6S)-6-((2-hydroxy-5-oxotetrahydrofuran-3-yl)carbamoyl)-4-oxo-1,2,3,4,6,7-hexahydroazepino[3,2,1-hi]indol-3-yl)carbamoyl)-16-methyl-2,6,9,13-tetraoxo-3,7,10,14-tetraazaoctadecyl)piperidin-4-yl)methyl)-1,4,7-triazonane-1,4-diyl)diacetic acid, aluminum fluoride complex (1:1)]: 6.7 nM; `CC[C@H](C)[C@H](NC(=O)CNC(=O)CNC(=O)[C@H](CCC(=O)O)NC(=O)CN1CCN(C(=O)CN2CCN3CCN(CC2)CC(=O)[O][Al]([F])[O]C(=O)C3)CC1)C(=O)N[C@H]1CCc2cccc3c2N(C1=O)[C@H](C(=O)NC1CC(=O)OC1O)C3` (stereo partly drawn) [Compound 8-Al, 2,2′-(7-(2-(4-((4S,13S,14S)-4-(2-carboxyethyl)-13-(((3S,6S)-6-((2-hydroxy-5-oxotetrahydrofuran-3-yl)carbamoyl)-4-oxo-1,2,3,4,6,7-hexahydroazepino[3,2,1-hi]indol-3-yl)carbamoyl)-14-methyl-2,5,8,11-tetraoxo-3,6,9,12-tetraazahexadecyl)piperazin-1-yl)-2-oxoethyl)-1,4,7-triazonane-1,4-diyl)diacetic acid, aluminum fluoride complex (1:1)] ({NOTA(AlF)}-[X1]EGGI[Haic]-{NH(5-HO-2-oxo-oxolan-4-yl)}): 6.5 nM. With `CC[C@H](C)[C@H](NC(=O)COCCNC(=O)[C@@H](CCC(=O)O)NC(=O)CN1CCN(C(=O)CN2CCN3CCN(CC2)CC(=O)[O][Al]([F])[O]C(=O)C3)CC1)C(=O)N[C@H]1CCc2cccc3c2N(C1=O)[C@H](C(=O)NC1CC(=O)OC1O)C3` (stereo partly drawn) [Compound 9-Al, 2,2′-(7-(2-(4-((4R,13S,14S)-4-(2-carboxyethyl)-13-(((3S,6S)-6-((2-hydroxy-5-oxotetrahydrofuran-3-yl)carbamoyl)-4-oxo-1,2,3,4,6,7-hexahydroazepino[3,2,1-hi]indol-3-yl)carbamoyl)-14-methyl-2,5,11-trioxo-9-oxa-3,6,12-triazahexadecyl)piperazin-1-yl)-2-oxoethyl)-1,4,7-triazonane-1,4-diyl)diacetic acid, aluminum fluoride complex (1:1)], the IC50 was 3.5 ± 0.78 nM.

The record behind these values is US20260158177A1, “COMPOUNDS SPECIFIC TO GRANZYME B AND USES THEREOF” (CYTOSITE BIOPHARMA INC., priority 2021, published 2026).
